The record followed here is patent US20200046869A1, “USE OF ZINC TREATED PRECIPITATED CALCIUM CARBONATE IN HYGIENIC PRODUCTS” (Omya International AG, priority 2017, published 2020).

A value given as a limit tells only on which side of the number the result lay.

Test [1] deals with Aerobe bacteria (TSA plates). Put plainly: Plate count of aerobe total viable count in zinc containing powders. The test is classed as cell-based. The note with it: powder in disruption buffer, 48 hours at 30° C., detection limit 100 cfu/g. As to the method: (§1) The microbial contamination (bacterial and fungi growth) of three different zinc containing powder samples was determined by the plate count method (spread count) according to the following procedure: 1 g of the respective powder and 9 ml sterile disruption buffer (DB) were weighed into a sterile 50 ml test tube (Greiner) under aseptic conditions using an autoclaved disposable spatula (VWR) in order to obtain suspensions of the zinc containing powder samples. To detach the microorganisms from the zinc containing powders samples, the suspensions were shaken on a vortex for 60 sec. at 2500 rpm before being put on a shaker for 30 minutes at motor setting 1400 (at room temperature, i.e. 21° C.). The sample to be analyzed was appropriately diluted and a defined volume no greater than 0.1 ml was spread over the surface of an agar plate using a sterile glass/plastic spreader. The agar plates were then incubated upside down (condensed water) for a defined period of time at a defined temperature. The sample to be analyzed was diluted 1:10 in PBS and 100 μl of the dilution was spread onto the TSA plate which was incubated for 48 hours at 30° C. The plates were evaluated by counting the grown colonies, thereby taking into account that only plates containing between 30-300 colonies have a high statistical significance. […]

The subject of the next test is Fungi. Put plainly: Plate count of fungal growth in zinc containing powders. In kind it is cell-based. The note with it: powder in disruption buffer, Sabouraud-Glucose agar, 7 days at 25° C.; detection limit 10 cfu/g. As to the method:
as §1, with “dilution were” for “dilution was”, “the” for “the TSA”, “for 7 days” for “for 48 hours”, “at 25°” for “at 30°”

As for `O=C([O-])[O-].[Zn+2]` [ZnCaCO3, ZnCO3], the “TVC Aerobe” value in test [1] is reported as under 100 cfu/g. The “TVC Fungi” value in the test with Fungi is given as under 10 cfu/g.
For `[O]=[Zn]` [ZnO] the same measures were under 100 cfu/g and under 10 cfu/g.
